EP4803520A1, “COMPOUND CONTAINING FUSED BICYCLIC RING, PHARMACEUTICAL COMPOSITION, AND USE THEREOF” (priority 2023, dated 2025)
One block for each compound: values may come before it.

Key:
MDA-MB-436 cells = assay: Assay on inhibitory activity for MDA-MB-436 cell proliferation (CCK-8); format: cell-based; conditions: 168 h of incubation, CCK-8, absorbance at 450 nm
Procedure: MDA-MB-436 cells in a good growth state were collected into a centrifuge tube, adjusted to a cell density of 2 × 10^4 cells/mL using a complete medium (DMEM high glucose + 10% FBS + 1× insulin-transferrin-selenium (ITS-G) + 16 µg/mL reduced glutathione), and seeded in a 96-well plate (100 µL/well), and the plate was incubated overnight in a cell incubator. Compounds were added using a pipettor, such that the final concentrations of the compounds were 400 nM-0.02 nM. The wells were set in duplicate, and a control well was set. After 168 h of incubation in the cell incubator, the assay reagent CCK-8 (manufacturer: Dojindo Laboratories, Beijing; 10 µL/well) was added. After 1.5 h of incubation in the cell incubator, the absorbance values were measured at 450 nm on a PerkinElmer Envision microplate reader. […] Inhibitory activity results for DA-MB-436 cell proliferation of compounds

PARP1 [1] = biological target: T1, PARP1 (Homo sapiens, UniProt P09874); assay: Assay on PARP1 protein activity (chemiluminescence assay kit)
Procedure: A chemiluminescence assay kit (BPS, Cat. No. 80551) was used. 50 µL of 1× histone was added to a 96-well plate and incubated overnight at 4 °C. Each well was washed 3 times with 200 µL of a PBST buffer (containing 0.05% Tween-20), and the liquid was removed from the plate. 200 µL of blocking buffer 3 was added, and the plate was blocked at room temperature for 60-90 min. The blocking solution was discarded, and the plate was washed 3 times with a PBST buffer, followed by the removal of the liquid from the plate. 25 µL of a master mix (2.5 µL of a 10× PARP buffer + 2.5 µL of a 10× biotinylated substrate assay mix + 5 µL of activated DNA (5×) + 15 µL of water) and 5 µL of a 1× PARP buffer were added to each well. Compounds were sprayed using a nanoliter pipettor in the compound groups. 20 µL of a 1× PARP buffer was added to the blank control group, and 20 µL of PARP 1 enzyme (2.4 ng/mL) was added to the other wells to initiate the reaction. The plate was incubated at room temperature for 1 h. 50 µL of streptavidin-HRP (diluted 1:50 in blocking buffer 3) was added to each well, and the plate was incubated at room temperature for 30 min. The plate was washed three times with PBST, and the liquid was removed from the plate. 50 µL of ELISA ECL substrate A and 50 µL of ELISA ECL substrate B were mixed on ice before use, and 100 µL were added to each well.

PARP1 [2] = biological target: T1, PARP1; assay: PARP1-Tracer activity assay (FP method); format: binding; parameters: purchased BPS 80551; conditions: for PARP2/PARP 1 selectivity: ratio of PARP2 IC50 to PARP1 IC50, FP method
Procedure: (§1) The enzyme inhibition activity of the compounds against PARP1/2-Tracer was tested using the FP method. First, 100 nL of inhibitors with a final concentration of 1% DMSO were transferred to a 384-well reaction plate (Corning 4514) using Echo655. Then, 5 µL of a PARP1/2 (BPS, Cat. No. 80501/80502) enzyme solution was added to each well, followed by centrifugation at 1000 RPM for 1 min at room temperature, and the reaction was allowed to proceed for 10 min. Subsequently, 5 µL of a Tracer (ICE, Cat. No. 001315-009) solution was added to each well, followed by centrifugation at 1000 RPM for 1 min at room temperature, and the reaction was allowed to proceed for 60 min. PARP1/2 and Tracer were prepared in a buffer containing 50 mM Tris (pH 8.0), 10 mM MgCl2, 150 mM NaCl, and 0.001% Triox-100, with final concentrations of 5/10 nM and 2.5 nM, respectively. Finally, the FP signal was read using BMG (PHERAstar FSX), and the IC50 values and nonlinear regression curve fitting were obtained using GraphPad Prism software.

PARP2 = biological target: T2, PARP2 (Homo sapiens, UniProt Q9UGN5); assay: PARP2-Tracer activity assay (FP method); format: binding; conditions: PARP2 10 nM, Tracer 2.5 nM
T2 construct: purchased BPS 80502
Procedure: as §1

Rat pharmacokinetics = format: in vivo; conditions: plasma, SD rats
From the text: A non-compartmental model was used for fitting to calculate relevant pharmacokinetic parameters, and the results are shown in Table 4. Table 4. Pharmacokinetic results of compounds in rats

[3] = Experiment on brain distribution in rats; format: in vivo, SD rats; conditions: rat, po
Mouse pharmacokinetics = format: in vivo; conditions: plasma, ICR mice
From the text: A non-compartmental model was used for fitting to calculate relevant pharmacokinetic parameters, and the results are shown in Table 3. Table 3. Pharmacokinetic results of compounds in mice

[4] = test system: MDA-MB-436 BRCA1m human breast cancer nude mouse subcutaneous xenograft tumor model; assay: Pharmacodynamic evaluation in nude mouse subcutaneous xenograft tumor model; format: in vivo, nude mice; conditions: ig 4 mg/kg once daily, after 22 days of administration
Procedure: MDA-MB-436 BRCA1m human breast cancer cells (5 × 10^6 cells/mouse) were inoculated subcutaneously into the right axilla of SPF-grade female nude mice. When the mean tumor volume reached about 150 mm^3, the animals were grouped.
The day of grouping was defined as day 0. The compound of the present application was intragastrically administered once on day 0, and was then administered once daily at a dose of 4 mg/kg with a vehicle of DMSO:PEG400 = 10:90 (v/v). The tumor volume and body weight were measured twice to thrice every week, and the data were recorded. The general behavior of the mice was observed and recorded every day. After the experiment was completed, the tumors were extracted, weighed, and photographed.
The detection parameters and the calculation formulas are as follows: Tumor volume TV (mm^3) = 1/2 × (a×b^2), [formula] where a represents the long diameter of the tumor, and b represents the short diameter of the tumor. Relative tumor volume RTV = TVt /TV0 , [formula] wherein TV0 represents the tumor volume on day 0, and TVt represents the tumor volume at each measurement. Relative tumor proliferation rate T/C (%) = (TRTV/CRTV) × 100%, [formula] where TRTV represents RTV of the treatment group, and CRTV represents RTV of the vehicle control group. […]

T1 sequence (P09874 whole entry): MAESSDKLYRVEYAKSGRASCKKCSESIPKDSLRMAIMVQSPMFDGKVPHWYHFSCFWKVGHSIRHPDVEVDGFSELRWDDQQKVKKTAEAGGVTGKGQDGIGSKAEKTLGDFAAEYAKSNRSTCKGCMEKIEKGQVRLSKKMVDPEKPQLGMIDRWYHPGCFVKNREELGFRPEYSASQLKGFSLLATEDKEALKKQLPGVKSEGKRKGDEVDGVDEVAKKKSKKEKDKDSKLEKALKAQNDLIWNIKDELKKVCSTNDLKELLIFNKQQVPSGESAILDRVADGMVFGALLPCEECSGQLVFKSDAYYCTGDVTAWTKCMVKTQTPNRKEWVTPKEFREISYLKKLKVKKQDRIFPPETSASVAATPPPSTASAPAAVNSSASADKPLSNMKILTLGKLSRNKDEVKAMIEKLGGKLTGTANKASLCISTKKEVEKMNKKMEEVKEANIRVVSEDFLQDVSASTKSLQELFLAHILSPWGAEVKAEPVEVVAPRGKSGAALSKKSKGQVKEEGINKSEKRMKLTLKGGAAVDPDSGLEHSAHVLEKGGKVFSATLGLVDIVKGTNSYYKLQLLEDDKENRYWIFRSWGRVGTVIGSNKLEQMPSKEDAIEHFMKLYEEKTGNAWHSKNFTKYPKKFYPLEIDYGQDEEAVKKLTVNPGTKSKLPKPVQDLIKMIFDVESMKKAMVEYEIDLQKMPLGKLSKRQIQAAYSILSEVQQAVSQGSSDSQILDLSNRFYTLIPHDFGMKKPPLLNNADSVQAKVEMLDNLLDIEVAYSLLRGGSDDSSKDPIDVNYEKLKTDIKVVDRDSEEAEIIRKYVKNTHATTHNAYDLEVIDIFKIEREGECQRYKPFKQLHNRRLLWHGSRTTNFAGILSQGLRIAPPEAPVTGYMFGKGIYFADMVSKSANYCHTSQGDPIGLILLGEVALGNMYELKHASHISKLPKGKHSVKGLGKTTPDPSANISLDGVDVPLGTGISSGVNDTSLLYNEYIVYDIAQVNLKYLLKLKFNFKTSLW
T2 sequence (Q9UGN5 whole entry): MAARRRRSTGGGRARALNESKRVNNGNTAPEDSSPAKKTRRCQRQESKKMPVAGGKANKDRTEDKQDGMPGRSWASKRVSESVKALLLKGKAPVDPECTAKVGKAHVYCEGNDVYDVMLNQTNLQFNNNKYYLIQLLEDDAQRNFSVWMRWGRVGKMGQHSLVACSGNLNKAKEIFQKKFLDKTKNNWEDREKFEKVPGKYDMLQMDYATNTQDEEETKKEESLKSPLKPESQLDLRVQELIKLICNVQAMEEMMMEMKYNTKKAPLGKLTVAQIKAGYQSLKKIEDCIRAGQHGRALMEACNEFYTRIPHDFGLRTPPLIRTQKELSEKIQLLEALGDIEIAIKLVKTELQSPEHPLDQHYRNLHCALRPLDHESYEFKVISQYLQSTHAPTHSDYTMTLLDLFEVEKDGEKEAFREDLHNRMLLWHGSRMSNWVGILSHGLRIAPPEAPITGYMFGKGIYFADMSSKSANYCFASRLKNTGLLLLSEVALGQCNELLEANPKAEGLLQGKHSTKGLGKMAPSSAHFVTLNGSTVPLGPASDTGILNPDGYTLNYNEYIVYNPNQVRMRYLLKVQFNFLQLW

IC50 (MDA-MB-436 cells; Homo sapiens, MDA-MB-436): ≤ 50 nM
Compound: CCc1cc2ccc(CN3CC(N4Cc5nc(C(=O)NC)sc5C4)C3)c(F)c2[nH]c1=O [Compound 30]

IC50 (MDA-MB-436 cells; Homo sapiens, MDA-MB-436): ≤ 50 nM
Compound: CNC(=O)c1cc2c(s1)CN(C1CN(Cc3ccc4cc(C(F)(F)F)c(=O)[nH]c4c3)C1)C2 [Compound 33]

Compound: CNC(=O)n1cc2c(n1)CN(C1CN(Cc3ccc4cc(C5CC5)c(=O)[nH]c4c3)C1)C2 [Compound 2]
IC50 (MDA-MB-436 cells; Homo sapiens, MDA-MB-436): ≤ 50 nM

IC50 (MDA-MB-436 cells; Homo sapiens, MDA-MB-436): ≤ 50 nM
Compound: CCc1cc2ccc(CN3CC(N4Cc5cn(C(=O)NC)nc5C4)C3)c(F)c2[nH]c1=O [Compound 29]

IC50 (MDA-MB-436 cells; Homo sapiens, MDA-MB-436): ≤ 50 nM
Compound: CNC(=O)c1nc2c(s1)CN(C1CN(Cc3ccc4cc(Cl)c(=O)[nH]c4c3)C1)C2 [Compound 27]

IC50 (MDA-MB-436 cells; Homo sapiens, MDA-MB-436): ≤ 50 nM
Compound: CNC(=O)n1cc2c(n1)CN(C1CN(Cc3ccc4cc(C(F)(F)F)c(=O)[nH]c4c3)[C@@H]1C)C2 (single isomer, unassigned) [Compound 35]

IC50 (MDA-MB-436 cells): ≤ 50 nM
Compound: CCc1cc2c(F)cc(CN3CC(N4Cc5cn(C(=O)NC)nc5C4)C3)cc2[nH]c1=O [Compound 16]

IC50 (MDA-MB-436 cells; Homo sapiens, MDA-MB-436): ≤ 50 nM
Compound: CCc1cc2ccc(CN3CC(N4Cc5nc(C(=O)NC)sc5C4)C3)cc2[nH]c1=O [Compound 19]

IC50 (MDA-MB-436 cells): ≤ 50 nM
Compound: CCNC(=O)n1cc2c(n1)CN(C1CN(Cc3ccc4cc(CC)c(=O)[nH]c4c3)C1)C2 [Compound 13]

IC50 (MDA-MB-436 cells): ≤ 50 nM
Compound: CNC(=O)n1cc2c(n1)CN(C1CN(Cc3ccc4c5c(c(=O)[nH]c4c3)CCC5)C1)C2 [Compound 15]

IC50 (MDA-MB-436 cells): ≤ 50 nM
Compound: CCc1cc2ncc(CN3CC(N4Cc5cn(C(=O)NC6CC6)nc5C4)C3)cc2[nH]c1=O [Compound 5]

IC50 (MDA-MB-436 cells; Homo sapiens, MDA-MB-436): ≤ 50 nM
Compound: CCc1cc2ccc(CN3CC(N4Cc5cn(C(=O)N[C@@H]6CCOC6)nc5C4)C3)cc2[nH]c1=O [Compound 17]

IC50 (MDA-MB-436 cells; Homo sapiens, MDA-MB-436): ≤ 50 nM
Compound: Cc1cc2ccc(CN3CC(N4Cc5cn(C(=O)NC6CC6)nc5C4)C3)cc2[nH]c1=O [Compound 23]

IC50 (MDA-MB-436 cells; Homo sapiens, MDA-MB-436): ≤ 50 nM
IC50 (PARP1 [1]): < 1 nM
Compound: CNC(=O)n1cc2c(n1)CN(C1CN(Cc3ccc4c(C)c(C(F)(F)F)c(=O)[nH]c4c3)C1)C2 [Compound 50]

IC50 (MDA-MB-436 cells; Homo sapiens, MDA-MB-436): ≤ 50 nM
Compound: CCc1cc2c(Cl)cc(CN3CC(N4Cc5cn(C(=O)NC)nc5C4)C3)cc2[nH]c1=O [Compound 25]

Compound: CCc1cc2ncc(CN3C[C@H](N4Cc5cn(C(=O)NC)nc5C4)[C@@H]3C)cc2[nH]c1=O [Compound 47]
IC50 (MDA-MB-436 cells; Homo sapiens, MDA-MB-436): ≤ 50 nM
IC50 (PARP1 [1]): < 1 nM

IC50 (MDA-MB-436 cells; Homo sapiens, MDA-MB-436): ≤ 50 nM
PARP2/PARP 1 selectivity (PARP1 [2]): >200 fold
Compound: CNC(=O)n1cc2c(n1)CN(C1CN(Cc3ccc4cc(C(F)(F)F)c(=O)[nH]c4c3)C1)C2 [Compound 24]

IC50 (MDA-MB-436 cells; Homo sapiens, MDA-MB-436): ≤ 50 nM
Compound: CNC(=O)c1nc2c(s1)CN(C1CN(Cc3ccc4cc(C(F)(F)F)c(=O)[nH]c4c3)C1)C2 [Compound 28]

IC50 (MDA-MB-436 cells; Homo sapiens, MDA-MB-436): ≤ 50 nM
Compound: CCc1cc2c(F)cc(CN3CC(N4Cc5nc(C(=O)NC)sc5C4)C3)cc2[nH]c1=O [Compound 21]

IC50 (PARP2): > 500 nM
AUC(0-t) (Rat pharmacokinetics; iv 0.1 mg/kg): 326 ng·h/mL
half-life (Rat pharmacokinetics; iv 0.1 mg/kg): 4.74 h
AUC(0-t) (Rat pharmacokinetics; po, ig 0.5 mg/kg): 1710 ng·h/mL
Cmax (Rat pharmacokinetics; po, ig 0.5 mg/kg): 208 ng/mL
half-life (Rat pharmacokinetics; po, ig 0.5 mg/kg): 4.76 h
IC50 (MDA-MB-436 cells; Homo sapiens, MDA-MB-436): ≤ 50 nM
Kp at 8 h ([3]; brain, 2 mg/kg, read-out: Brain-to-blood ratio): 0.082
AUC at 8 h ([3]; SD rats, ig 2 mg/kg, brain homogenate): 453 ng·h/mL
AUC(0-t) at 8 h ([3]; SD rats, ig 2 mg/kg, plasma): 5530 ng·h/mL
IC50 (PARP1 [2]; FP method, PARP1 5 nM, Tracer 2.5 nM): 3.1 nM
PARP2/PARP 1 selectivity (PARP1 [2]): >200 fold
AUC(0-t) (Mouse pharmacokinetics; iv 0.1 mg/kg): 6650 ng·h/mL
half-life (Mouse pharmacokinetics; iv 0.1 mg/kg): 13.6 h
AUC(0-t) (Mouse pharmacokinetics; po, ig 0.1 mg/kg): 5490 ng·h/mL
Cmax (Mouse pharmacokinetics; po, ig 0.1 mg/kg): 331 ng/mL
IC50 (PARP1 [1]): < 1 nM
Compound: CNC(=O)n1cc2c(n1)CN([C@H]1CN(Cc3ccc4cc(C(F)(F)F)c(=O)[nH]c4c3F)[C@H]1C)C2 [Compound 55]
tumor inhibition rate [4]: up to 97%
